{"source": "patent US6358885B1", "about": "“Substituted phenylheterocyclic herbicides” (Mississippi State University, priority 1992, dated 2002)", "assay_in_all_cases": "Test F preemergence/postemergence greenhouse plant response rating 0 to 100", "key": {"[1]": {"system": "winter barley", "type": "in vivo, Hordeum vulgare cv. ‘Igri’", "details": "POSTEMERGENCE, 0 to 100 scale", "source_text": "(§1) Compounds evaluated in this test were formulated in a non-phytoxic solvent and applied to the soil surface before plant seedlings emerged (preemergence application) and to plants that were in the one-to-four leaf stage (postemergence application). A sandy loam soil was used for the preemergence test while a mixture of sandy loam soil and greenhouse potting mix in a 60:40 ratio was used for the postemergence test. Test compounds were applied within approximately one day after planting seeds for the preemergence test. Plantings of these crops and weed species were adjusted to produce plants of appropriate size for the postemergence test. All plant species were grown using normal greenhouse practices. Crop and weed species include winter barley (Hordeum vulgare cv. ‘Igri’), blackgrass (Alopecurus myosuroides), chickweed (Stellaria media), downy brome (Bromus tectorum), field violet (Viola arvensis), galium (Galium aparine), green foxtail (Setaria viridis), kochia (Kochia scoparia), lambsquarters (Chenopodium album), speedwell (Veronica persica), rape (Brassica napus), ryegrass (Lolium multiflorum), sugar beet (Beta vulgaris cv. ‘USl’), sunflower (Helianthus annuus cv. ‘Russian Giant’), spring wheat (Triticum aestivum cv. ‘ERA’), winter wheat (Triticum aestivum cv. ‘Talent’), wild buckwheat (Polygonum convolvulus), wild mustard (Sinapis arvensis), wild oat (Avena fatua), and wild radish (Raphanus raphanistrum). Blackgrass, galium and wild oat were treated at two growth stages. […] Treated plants and untreated controls were maintained in a greenhouse for approximately 21 to 28 days, after which all treated plants were compared to untreated controls and visually evaluated. […] A dash response (-) means no test result."}, "[2]": {"system": "blackgrass", "type": "in vivo, Alopecurus myosuroides", "details": "POSTEMERGENCE, 0 to 100 scale; for Blackgrass (1) plant response rating: stage (1) two to three leaves; for Blackgrass (2) plant response rating: stage (2) approximately four leaves or initial tillering", "source_text": "as §1"}, "[3]": {"system": "chickweed", "type": "in vivo, Stellaria media", "details": "POSTEMERGENCE, 0 to 100 scale", "source_text": "as §1"}, "[4]": {"system": "field violet", "type": "in vivo, Viola arvensis", "details": "POSTEMERGENCE, 0 to 100 scale", "source_text": "as §1"}, "[5]": {"system": "galium", "type": "in vivo, Galium aparine", "details": "POSTEMERGENCE, 0 to 100 scale; for Galium (1) plant response rating: stage (1) two to three leaves; for Galium (2) plant response rating: stage (2) approximately four leaves or initial tillering", "source_text": "as §1"}, "[6]": {"system": "green foxtail", "type": "in vivo, Setaria viridis", "details": "POSTEMERGENCE, 0 to 100 scale", "source_text": "as §1"}, "[7]": {"system": "lambsquarters", "type": "in vivo, Chenopodium album", "details": "POSTEMERGENCE, 0 to 100 scale", "source_text": "as §1"}, "[8]": {"system": "speedwell", "type": "in vivo, Veronica persica", "details": "POSTEMERGENCE, 0 to 100 scale", "source_text": "as §1"}, "[9]": {"system": "ryegrass", "type": "in vivo, Lolium multiflorum", "details": "POSTEMERGENCE, 0 to 100 scale", "source_text": "as §1"}, "[10]": {"system": "spring wheat", "type": "in vivo, Triticum aestivum cv. ‘ERA’", "details": "POSTEMERGENCE, 0 to 100 scale", "source_text": "as §1"}, "[11]": {"system": "winter wheat", "type": "in vivo, Triticum aestivum cv. ‘Talent’", "details": "POSTEMERGENCE, 0 to 100 scale", "source_text": "as §1"}, "[12]": {"system": "wild oat", "type": "in vivo, Avena fatua", "details": "POSTEMERGENCE, 0 to 100 scale; for Wild oat (1) plant response rating: stage (1) two to three leaves; for Wild oat (2) plant response rating: stage (2) approximately four leaves or initial tillering", "source_text": "as §1"}, "[13]": {"system": "wild radish", "type": "in vivo, Raphanus raphanistrum", "details": "POSTEMERGENCE, 0 to 100 scale", "source_text": "as §1"}}}
{"smiles": "C#CC(C)Oc1cc(-c2nn3c(c2Cl)CCCC3)c(F)cc1Cl", "note": "(stereo not shown) [Compound 36]", "values": [{"measurement": "Winter Barley plant response rating", "setting": "[1]; Rate 4 g/ha", "value": 20}, {"measurement": "Winter Barley plant response rating", "setting": "[1]; Rate 8 g/ha", "value": 20}, {"measurement": "Winter Barley plant response rating", "setting": "[1]; Rate 16 g/ha", "value": 20}, {"measurement": "Winter Barley plant response rating", "setting": "[1]; Rate 32 g/ha", "value": 25}, {"measurement": "Blackgrass (1) plant response rating", "setting": "[2]; Rate 4 g/ha", "value": 0}, {"measurement": "Blackgrass (2) plant response rating", "setting": "[2]; Rate 4 g/ha", "value": 0}, {"measurement": "Blackgrass (1) plant response rating", "setting": "[2]; Rate 8 g/ha", "value": 0}, {"measurement": "Blackgrass (2) plant response rating", "setting": "[2]; Rate 8 g/ha", "value": 0}, {"measurement": "Blackgrass (1) plant response rating", "setting": "[2]; Rate 16 g/ha", "value": 0}, {"measurement": "Blackgrass (2) plant response rating", "setting": "[2]; Rate 16 g/ha", "value": 10}, {"measurement": "Blackgrass (1) plant response rating", "setting": "[2]; Rate 32 g/ha", "value": 5}, {"measurement": "Blackgrass (2) plant response rating", "setting": "[2]; Rate 32 g/ha", "value": 20}, {"measurement": "Chickweed plant response rating", "setting": "[3]; Rate 4 g/ha", "value": 50}, {"measurement": "Chickweed plant response rating", "setting": "[3]; Rate 8 g/ha", "value": 100}, {"measurement": "Chickweed plant response rating", "setting": "[3]; Rate 16 g/ha", "value": 100}, {"measurement": "Chickweed plant response rating", "setting": "[3]; Rate 32 g/ha", "value": 100}, {"measurement": "Field violet plant response rating", "setting": "[4]; Rate 4 g/ha", "value": 100}, {"measurement": "Field violet plant response rating", "setting": "[4]; Rate 8 g/ha", "value": 100}, {"measurement": "Field violet plant response rating", "setting": "[4]; Rate 16 g/ha", "value": 100}, {"measurement": "Field violet plant response rating", "setting": "[4]; Rate 32 g/ha", "value": 100}, {"measurement": "Galium (1) plant response rating", "setting": "[5]; Rate 4 g/ha", "value": 20}, {"measurement": "Galium (2) plant response rating", "setting": "[5]; Rate 4 g/ha", "value": 40}, {"measurement": "Galium (1) plant response rating", "setting": "[5]; Rate 8 g/ha", "value": 50}, {"measurement": "Galium (2) plant response rating", "setting": "[5]; Rate 8 g/ha", "value": 60}, {"measurement": "Galium (1) plant response rating", "setting": "[5]; Rate 16 g/ha", "value": 50}, {"measurement": "Galium (2) plant response rating", "setting": "[5]; Rate 16 g/ha", "value": 60}, {"measurement": "Galium (1) plant response rating", "setting": "[5]; Rate 32 g/ha", "value": 60}, {"measurement": "Galium (2) plant response rating", "setting": "[5]; Rate 32 g/ha", "value": 70}, {"measurement": "Green foxtail plant response rating", "setting": "[6]; Rate 4 g/ha", "value": 0}, {"measurement": "Green foxtail plant response rating", "setting": "[6]; Rate 8 g/ha", "value": 40}, {"measurement": "Green foxtail plant response rating", "setting": "[6]; Rate 16 g/ha", "value": 50}, {"measurement": "Green foxtail plant response rating", "setting": "[6]; Rate 32 g/ha", "value": 50}, {"measurement": "Lambsquarters plant response rating", "setting": "[7]; Rate 4 g/ha", "value": 50}, {"measurement": "Lambsquarters plant response rating", "setting": "[7]; Rate 8 g/ha", "value": 50}, {"measurement": "Lambsquarters plant response rating", "setting": "[7]; Rate 16 g/ha", "value": 60}, {"measurement": "Lambsquarters plant response rating", "setting": "[7]; Rate 32 g/ha", "value": 60}, {"measurement": "Persn Speedwell plant response rating", "setting": "[8]; Rate 4 g/ha", "value": 100}, {"measurement": "Persn Speedwell plant response rating", "setting": "[8]; Rate 8 g/ha", "value": 100}, {"measurement": "Persn Speedwell plant response rating", "setting": "[8]; Rate 16 g/ha", "value": 100}, {"measurement": "Persn Speedwell plant response rating", "setting": "[8]; Rate 32 g/ha", "value": 100}, {"measurement": "Ryegrass plant response rating", "setting": "[9]; Rate 4 g/ha", "value": 0}, {"measurement": "Ryegrass plant response rating", "setting": "[9]; Rate 8 g/ha", "value": 10}, {"measurement": "Ryegrass plant response rating", "setting": "[9]; Rate 16 g/ha", "value": 20}, {"measurement": "Ryegrass plant response rating", "setting": "[9]; Rate 32 g/ha", "value": 35}, {"measurement": "Wheat (Spring) plant response rating", "setting": "[10]; Rate 4 g/ha", "value": 15}, {"measurement": "Wheat (Spring) plant response rating", "setting": "[10]; Rate 8 g/ha", "value": 15}, {"measurement": "Wheat (Spring) plant response rating", "setting": "[10]; Rate 16 g/ha", "value": 15}, {"measurement": "Wheat (Spring) plant response rating", "setting": "[10]; Rate 32 g/ha", "value": 20}, {"measurement": "Wheat (Winter) plant response rating", "setting": "[11]; Rate 4 g/ha", "value": 20}, {"measurement": "Wheat (Winter) plant response rating", "setting": "[11]; Rate 8 g/ha", "value": 20}, {"measurement": "Wheat (Winter) plant response rating", "setting": "[11]; Rate 16 g/ha", "value": 20}, {"measurement": "Wheat (Winter) plant response rating", "setting": "[11]; Rate 32 g/ha", "value": 50}, {"measurement": "Wild oat (1) plant response rating", "setting": "[12]; Rate 4 g/ha", "value": 10}, {"measurement": "Wild oat (2) plant response rating", "setting": "[12]; Rate 4 g/ha", "value": 10}, {"measurement": "Wild oat (1) plant response rating", "setting": "[12]; Rate 8 g/ha", "value": 20}, {"measurement": "Wild oat (2) plant response rating", "setting": "[12]; Rate 8 g/ha", "value": 10}, {"measurement": "Wild oat (1) plant response rating", "setting": "[12]; Rate 16 g/ha", "value": 20}, {"measurement": "Wild oat (2) plant response rating", "setting": "[12]; Rate 16 g/ha", "value": 20}, {"measurement": "Wild oat (1) plant response rating", "setting": "[12]; Rate 32 g/ha", "value": 20}, {"measurement": "Wild oat (2) plant response rating", "setting": "[12]; Rate 32 g/ha", "value": 20}, {"measurement": "Wild radish plant response rating", "setting": "[13]; Rate 4 g/ha", "value": 100}, {"measurement": "Wild radish plant response rating", "setting": "[13]; Rate 8 g/ha", "value": 100}, {"measurement": "Wild radish plant response rating", "setting": "[13]; Rate 16 g/ha", "value": 100}, {"measurement": "Wild radish plant response rating", "setting": "[13]; Rate 32 g/ha", "value": 100}]}
